In experiment [1] the target is T1, Protein Mdm4 (Homo sapiens, UniProt O15151).
T1 sequence (O15151 whole entry): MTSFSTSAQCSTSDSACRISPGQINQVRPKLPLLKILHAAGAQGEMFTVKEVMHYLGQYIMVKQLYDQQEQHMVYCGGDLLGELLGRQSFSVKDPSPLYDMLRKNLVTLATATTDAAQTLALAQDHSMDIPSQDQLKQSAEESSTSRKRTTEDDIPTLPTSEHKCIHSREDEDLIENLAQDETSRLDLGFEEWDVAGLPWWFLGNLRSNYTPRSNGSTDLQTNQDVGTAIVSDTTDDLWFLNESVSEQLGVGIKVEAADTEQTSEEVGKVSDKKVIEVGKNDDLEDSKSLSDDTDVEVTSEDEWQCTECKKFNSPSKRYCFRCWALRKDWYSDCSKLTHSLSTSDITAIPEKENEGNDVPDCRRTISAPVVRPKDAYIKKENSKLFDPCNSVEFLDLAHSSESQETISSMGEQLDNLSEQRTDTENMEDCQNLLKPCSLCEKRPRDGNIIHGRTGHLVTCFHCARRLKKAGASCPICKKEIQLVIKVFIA

Experiment [2] deals with E3 ubiquitin-protein ligase Mdm2 (Homo sapiens, UniProt Q00987).

pKi: −log10 of the molar value.

The pKi is the negative decadic logarithm of the Ki, by convention in mol/L.

Chain of E3 ubiquitin-protein ligase Mdm2 (Q00987 whole entry): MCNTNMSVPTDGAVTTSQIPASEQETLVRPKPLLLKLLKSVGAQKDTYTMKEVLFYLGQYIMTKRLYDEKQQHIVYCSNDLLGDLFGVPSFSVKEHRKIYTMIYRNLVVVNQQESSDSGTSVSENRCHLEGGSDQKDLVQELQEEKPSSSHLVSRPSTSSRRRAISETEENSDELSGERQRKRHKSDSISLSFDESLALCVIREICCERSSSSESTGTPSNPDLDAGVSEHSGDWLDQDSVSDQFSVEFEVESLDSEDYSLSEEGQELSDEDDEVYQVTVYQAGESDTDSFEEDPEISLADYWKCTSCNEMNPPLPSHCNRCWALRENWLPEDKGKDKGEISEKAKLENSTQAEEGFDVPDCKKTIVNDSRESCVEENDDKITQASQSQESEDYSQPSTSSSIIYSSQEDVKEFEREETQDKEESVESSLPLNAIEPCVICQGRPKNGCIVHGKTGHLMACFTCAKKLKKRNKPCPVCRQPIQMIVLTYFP

Consider `O=C(O)c1[nH]c2cc(Cl)ccc2c1C(NCC1CCCCC1)c1nnnn1Cc1ccc(OCc2ccccc2Cl)cc1` (stereo unspecified), for which, in experiment [1], the Ki entry is on record as “Not Active”. As to `O=C(O)c1[nH]c2cc(Cl)ccc2c1C(NC1CCCCC1)c1nnnn1-c1ccc(OCc2ccccc2)cc1` (stereo unspecified), in experiment [1], the Ki entry is recorded as “Not Active”. Take `CCOC(=O)c1[nH]c2cc(Cl)ccc2c1C(NCc1ccc(Cl)cc1)c1nnnn1Cc1ccc(Cl)cc1` (stereo unspecified): the Ki result in experiment [2] and in experiment [1] was “Not Active” in each case.

Take `CCOC(=O)c1[nH]c2cc(Cl)ccc2c1C(NCC1CCCCC1)c1nnnn1Cc1ccc(Cl)cc1` (stereo unspecified): the Ki result in experiment [2] and in experiment [1] was “Not Active” in each case. Take `CCCCCNC(c1c(C(=O)O)[nH]c2cc(Cl)ccc12)c1nnnn1-c1ccc(F)c(Cl)c1` (stereo unspecified): in experiment [1], the Ki entry is “Not Active”.

Take `O=C(O)c1[nH]c2cc(Cl)ccc2c1C(NC1CCCCCC1)c1nnnn1-c1cccc(OCc2ccccc2)c1` (stereo unspecified): the Ki entry in experiment [1] is listed as “Not Active”.

For `CCCCCNC(c1c(C(=O)OCC)[nH]c2cc(Cl)ccc12)c1nnnn1-c1ccc(OCc2c(Cl)cccc2Cl)cc1` (stereo unspecified), the Ki result in experiment [2] and in experiment [1] was “Not Active” throughout.

For the compound `CCOC(=O)c1[nH]c2cc(Cl)ccc2c1C(NCc1ccc(Cl)cc1)c1nnnn1Cc1ccc(OCc2ccccc2Br)cc1` (stereo unspecified), the Ki result in experiment [2] and in experiment [1] was “Not Active” in each case. In the case of `CCOC(=O)c1[nH]c2cc(Cl)ccc2c1C(NCC1CCCCC1)c1nnnn1-c1ccc(OCc2ccccc2Br)cc1` (stereo unspecified), the Ki entry in experiment [2] and in experiment [1] was “Not Active” throughout.

Turning to `O=C(O)c1[nH]c2cc(Cl)ccc2c1C(NCC1CCCCC1)c1nnnn1Cc1ccc(OCc2ccccc2F)cc1` (stereo unspecified), in experiment [1], the Ki entry is “Not Active”. The same measure, in the same setting: for `O=C(O)c1[nH]c2cc(Cl)ccc2c1C(NC1CCCC1)c1nnnn1-c1cccc(OCc2ccccc2)c1` (stereo unspecified) the value was “Not Active”. With `CCCCCNC(c1c(C(=O)OCC)[nH]c2cc(Cl)ccc12)c1nnnn1-c1ccc(C(C)C)cc1` (stereo unspecified), the Ki entry in experiment [2] and in experiment [1] was “Not Active” in each case. Take `CCOC(=O)c1[nH]c2cc(Cl)ccc2c1C(NC1CCCCC1)c1nnnn1-c1cccc(OCc2ccccc2)c1` (stereo unspecified): the Ki entry in experiment [2] and in experiment [1] was “Not Active” throughout. Consider `O=C(O)c1[nH]c2cc(Cl)ccc2c1C(NCC1CCCCC1)c1nnnn1Cc1ccc(Cl)cc1` (stereo unspecified), for which the Ki entry in experiment [1] is “Not Active”. On the same count and under the same terms, for `O=C(O)c1[nH]c2cc(Cl)ccc2c1C(NCC1CCCCC1)c1nnnn1-c1ccc(OCc2c(Cl)cccc2Cl)cc1` (stereo unspecified) the value was “Not Active”; for `CCCCCNC(c1c(C(=O)O)[nH]c2cc(Cl)ccc12)c1nnnn1Cc1ccc(OCc2ccccc2Cl)cc1` (stereo unspecified), “Not Active”. Regarding `CCCCCNC(c1c(C(=O)OCC)[nH]c2cc(Cl)ccc12)c1nnnn1-c1ccc(OCc2ccccc2Br)cc1` (stereo unspecified), the Ki result in experiment [2] and in experiment [1] was “Not Active” each time.

Turning to `CCOC(=O)c1[nH]c2cc(Cl)ccc2c1C(NC1CCCCC1)c1nnnn1-c1ccc(OCc2ccccc2)cc1` (stereo unspecified), the Ki entry in experiment [2] and in experiment [1] was “Not Active” in each case.

For the compound `O=C(O)c1[nH]c2cc(Cl)ccc2c1C(NCC1CCCCC1)c1nnnn1-c1ccc(OCc2ccc(Br)cc2)cc1` (stereo unspecified), the Ki result in experiment [1] was “Not Active”. Consider `CCOC(=O)c1[nH]c2cc(Cl)ccc2c1C(NCC1CCCCC1)c1nnnn1-c1ccc(OCc2ccc(Br)cc2)cc1` (stereo unspecified), for which the Ki result in experiment [2] and in experiment [1] was “Not Active” in each case. Consider `O=C(O)c1[nH]c2cc(Cl)ccc2c1C(NC1CCCC1)c1nnnn1-c1cccc(Oc2ccccc2)c1` (stereo unspecified), for which the Ki result in experiment [1] is “Not Active”. On to `CCOC(=O)c1[nH]c2cc(Cl)ccc2c1C(NCC1CCCCC1)c1nnnn1-c1ccc(F)c(Cl)c1` (stereo unspecified), for which the Ki entry in experiment [2] and in experiment [1] was “Not Active” throughout. Take `CCCCCNC(c1c(C(=O)OCC)[nH]c2cc(Cl)ccc12)c1nnnn1-c1ccc(Cl)cc1` (stereo unspecified): the Ki result in experiment [2] and in experiment [1] was “Not Active” throughout.

Consider `O=C(O)c1[nH]c2cc(Cl)ccc2c1C(NC1CCCCC1)c1nnnn1-c1cccc(Oc2ccccc2)c1` (stereo unspecified), for which the Ki entry in experiment [1] is on record as “Not Active”. As to `CCCCCNC(c1c(C(=O)O)[nH]c2cc(Cl)ccc12)c1nnnn1Cc1ccc(OCc2ccccc2Br)cc1` (stereo unspecified), the Ki entry in experiment [1] is recorded as “Not Active”.

Regarding `O=C(O)c1[nH]c2cc(Cl)ccc2c1C(NC1CCCC1)c1nnnn1-c1ccc(OCc2ccccc2)cc1` (stereo unspecified), the Ki result in experiment [1] is on record as “Not Active”.

Consider `O=C(O)c1[nH]c2cc(Cl)ccc2c1C(NC1CCC1)c1nnnn1-c1ccc(OCc2ccccc2Br)cc1` (stereo unspecified), for which, in experiment [1], the Ki entry is “Not Active”.

With `CCOC(=O)c1[nH]c2cc(Cl)ccc2c1C(NCC1CCCCC1)c1nnnn1Cc1ccc(OCc2ccccc2Cl)cc1` (stereo unspecified), the Ki result in experiment [2] and in experiment [1] was “Not Active” throughout. In the case of `CCOC(=O)c1[nH]c2cc(Cl)ccc2c1C(NC1CCCCCC1)c1nnnn1-c1ccc(OCc2ccccc2)cc1` (stereo unspecified), the Ki result in experiment [2] and in experiment [1] was “Not Active” throughout. Regarding `CCCCCNC(c1c(C(=O)OCC)[nH]c2cc(Cl)ccc12)c1nnnn1-c1ccc(F)c(Cl)c1` (stereo unspecified), the Ki entry in experiment [2] and in experiment [1] was “Not Active” throughout. For `CC(C)c1ccc(-n2nnnc2C(NCC2CCCCC2)c2c(C(=O)O)[nH]c3cc(Cl)ccc23)cc1` (stereo unspecified), the Ki entry in experiment [1] is recorded as “Not Active”. Regarding `CCCCCNC(c1c(C(=O)OCC)[nH]c2cc(Cl)ccc12)c1nnnn1Cc1ccc(Cl)cc1` (stereo unspecified), the Ki result in experiment [2] and in experiment [1] was “Not Active” throughout.

With `O=C(O)c1[nH]c2cc(Cl)ccc2c1C(NCC1CCCCC1)c1nnnn1-c1ccc(F)c(Cl)c1` (stereo unspecified), the Ki result in experiment [1] is recorded as “Not Active”. Consider `CCOC(=O)c1[nH]c2cc(Cl)ccc2c1C(NCC1CCCCC1)c1nnnn1-c1ccc(OCc2c(Cl)cccc2Cl)cc1` (stereo unspecified), for which the Ki result in experiment [2] and in experiment [1] was “Not Active” in each case. For the compound `O=C(O)c1[nH]c2cc(Cl)ccc2c1C(NC1CCCCCC1)c1nnnn1-c1ccc(OCc2ccccc2)cc1` (stereo unspecified), in experiment [1], the Ki entry is on record as “Not Active”. Regarding `O=C(O)c1[nH]c2cc(Cl)ccc2c1C(NC1C2CC3CC(C2)CC1C3)c1nnnn1-c1ccc(OCc2ccccc2Br)cc1` (stereo unspecified), the Ki result in experiment [1] is listed as “Not Active”. In the case of `CCOC(=O)c1[nH]c2cc(Cl)ccc2c1C(NC1CCCCCC1)c1nnnn1-c1cccc(OCc2ccccc2)c1` (stereo unspecified), the Ki result in experiment [2] and in experiment [1] was “Not Active” in each case.

Regarding `CCCCCNC(c1c(C(=O)O)[nH]c2cc(Cl)ccc12)c1nnnn1-c1ccc(OCc2ccc(Br)cc2)cc1` (stereo unspecified), the Ki result in experiment [1] is given as “Not Active”. Still for that read-out and setting: with `O=C(O)c1[nH]c2cc(Cl)ccc2c1C(NCc1ccc(Cl)cc1)c1nnnn1Cc1ccc(Cl)cc1` (stereo unspecified) the entry was “Not Active”. As to `CCOC(=O)c1[nH]c2cc(Cl)ccc2c1C(NC1CCC1)c1nnnn1-c1ccc(OCc2ccccc2Br)cc1` (stereo unspecified), the Ki result in experiment [2] and in experiment [1] was “Not Active” throughout.

`CCCCCNC(c1c(C(=O)OCC)[nH]c2cc(Cl)ccc12)c1nnnn1Cc1ccc(OCc2ccccc2F)cc1` (stereo unspecified): the Ki result in experiment [1] is “Not Active”. Consider `CCOC(=O)c1[nH]c2cc(Cl)ccc2c1C(NCC1CCCCC1)c1nnnn1Cc1ccc(OCc2ccccc2Br)cc1` (stereo unspecified), for which the Ki entry in experiment [2] and in experiment [1] was “Not Active” in each case. In the case of `CCCCCNC(c1c(C(=O)O)[nH]c2cc(Cl)ccc12)c1nnnn1-c1ccc(OCc2c(Cl)cccc2Cl)cc1` (stereo unspecified), in experiment [1], the Ki entry is reported as “Not Active”.

Take `O=C(O)c1[nH]c2cc(Cl)ccc2c1C(NC1CCCCCC1)c1nnnn1-c1cccc(Oc2ccccc2)c1` (stereo unspecified): in experiment [1], the Ki entry is listed as “Not Active”. The same measure, in the same setting: for `O=C(O)c1[nH]c2cc(Cl)ccc2c1C(NC1CCCCC1)c1nnnn1-c1cccc(OCc2ccccc2)c1` (stereo unspecified) the value was “Not Active”; for `O=C(O)c1[nH]c2cc(Cl)ccc2c1C(NCc1ccc(Cl)cc1)c1nnnn1Cc1ccc(OCc2ccccc2Br)cc1` (stereo unspecified), “Not Active”. For the compound `CCCCCNC(c1c(C(=O)O)[nH]c2cc(Cl)ccc12)c1nnnn1-c1ccc(OCc2ccccc2Br)cc1` (stereo unspecified), the Ki entry in experiment [1] is “Not Active”. On the same count and under the same terms, with `O=C(O)c1[nH]c2cc(Cl)ccc2c1C(NCC1CCCCC1)c1nnnn1Cc1ccc(OCc2ccccc2Br)cc1` (stereo unspecified) the entry was “Not Active”.

As to `CCCCCNC(c1c(C(=O)O)[nH]c2cc(Cl)ccc12)c1nnnn1Cc1ccc(Cl)cc1` (stereo unspecified), the Ki entry in experiment [1] is “Not Active”. For `CCOC(=O)c1[nH]c2cc(Cl)ccc2c1C(NC1CCCC1)c1nnnn1-c1ccc(OCc2ccccc2)cc1` (stereo unspecified), the Ki entry in experiment [2] and in experiment [1] was “Not Active” in each case. On to `CCOC(=O)c1[nH]c2cc(Cl)ccc2c1C(NCC1CCCCC1)c1nnnn1-c1ccc(Cl)cc1` (stereo unspecified), for which the negative-log Ki (pKi) in experiment [2] (read-out: Ki) is 3.93. For `CCCCCNC(c1c(C(=O)O)[nH]c2cc(Cl)ccc12)c1nnnn1-c1ccc(C(C)C)cc1` (stereo unspecified), in experiment [1], the Ki result was “Not Active”.

Turning to `CCCCCNC(c1c(C(=O)OCC)[nH]c2cc(Cl)ccc12)c1nnnn1-c1ccc(OCc2ccc(Br)cc2)cc1` (stereo unspecified), the Ki entry in experiment [2] and in experiment [1] was “Not Active” each time. As to `CCCCCNC(c1c(C(=O)OCC)[nH]c2cc(Cl)ccc12)c1nnnn1Cc1ccc(OCc2ccccc2Br)cc1` (stereo unspecified), the Ki entry in experiment [2] and in experiment [1] was “Not Active” throughout.

`CCCCCNC(c1c(C(=O)O)[nH]c2cc(Cl)ccc12)c1nnnn1-c1ccc(Cl)cc1` (stereo unspecified): in experiment [1], the Ki result is reported as “Not Active”.

Take `O=C(O)c1[nH]c2cc(Cl)ccc2c1C(NCC1CCCCC1)c1nnnn1-c1ccc(OCc2ccccc2Br)cc1` (stereo unspecified): the Ki entry in experiment [1] is reported as “Not Active”. `CCCCCNC(c1c(C(=O)OCC)[nH]c2cc(Cl)ccc12)c1nnnn1Cc1ccc(OCc2ccccc2Cl)cc1` (stereo unspecified): the Ki result in experiment [2] and in experiment [1] was “Not Active” in each case.

The values are drawn from ChEMBL document CHEMBL4002567, “Rational design and synthesis of 1,5-disubstituted tetrazoles as potent inhibitors of the MDM2-p53 interaction” (Eur J Med Chem, 2017).
